According to patent US6630484B1 (priority 1996, dated 2003):
Entries after “also recorded” stand apart in the source; their conditions may differ.

Key:
Golgi α-mannosidase II = target: T1, Golgi α-mannosidase II (Homo sapiens, UniProt Q16706); experiment: Inhibition of the glycoprotein processing Golgi α-mannosidase II; type: biochemical
T1 sequence (Q16706 1-1144): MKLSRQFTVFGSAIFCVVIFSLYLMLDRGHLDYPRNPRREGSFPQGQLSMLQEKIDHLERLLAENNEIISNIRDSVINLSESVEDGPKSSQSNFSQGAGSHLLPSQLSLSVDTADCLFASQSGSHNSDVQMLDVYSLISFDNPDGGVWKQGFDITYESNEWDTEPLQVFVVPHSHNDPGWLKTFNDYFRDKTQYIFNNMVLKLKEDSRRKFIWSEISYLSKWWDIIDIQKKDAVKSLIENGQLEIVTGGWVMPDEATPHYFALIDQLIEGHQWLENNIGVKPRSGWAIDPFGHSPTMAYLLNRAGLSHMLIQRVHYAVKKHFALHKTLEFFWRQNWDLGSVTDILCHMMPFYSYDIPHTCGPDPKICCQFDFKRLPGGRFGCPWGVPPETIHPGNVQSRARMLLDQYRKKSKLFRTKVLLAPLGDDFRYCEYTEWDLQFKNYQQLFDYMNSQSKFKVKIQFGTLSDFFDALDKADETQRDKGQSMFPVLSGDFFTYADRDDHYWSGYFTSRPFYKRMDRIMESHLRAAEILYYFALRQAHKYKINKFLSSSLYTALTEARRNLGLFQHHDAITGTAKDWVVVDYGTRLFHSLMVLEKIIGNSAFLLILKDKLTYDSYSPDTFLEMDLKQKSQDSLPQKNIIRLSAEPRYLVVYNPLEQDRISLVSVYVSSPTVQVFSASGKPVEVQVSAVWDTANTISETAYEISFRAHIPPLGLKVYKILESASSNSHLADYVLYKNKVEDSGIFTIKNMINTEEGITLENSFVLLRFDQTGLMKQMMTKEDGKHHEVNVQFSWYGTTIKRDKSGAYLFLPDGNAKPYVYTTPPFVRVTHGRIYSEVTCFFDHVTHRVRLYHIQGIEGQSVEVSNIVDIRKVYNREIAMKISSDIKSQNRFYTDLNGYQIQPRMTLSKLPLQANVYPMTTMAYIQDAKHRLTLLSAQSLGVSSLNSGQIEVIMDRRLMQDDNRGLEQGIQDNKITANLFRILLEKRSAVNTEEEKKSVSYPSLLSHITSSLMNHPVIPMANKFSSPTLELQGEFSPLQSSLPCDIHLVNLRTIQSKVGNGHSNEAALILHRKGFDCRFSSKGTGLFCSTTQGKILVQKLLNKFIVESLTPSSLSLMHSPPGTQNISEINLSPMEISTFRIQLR

[1] = 50 to 550 μg/kg/day continuous i.v. infusion over 5 days, cited from earlier work
[2] = animals; cited from earlier work
[3] = target: T2, α-mannosidase from jack bean (Canavalia ensiformis, UniProt C0HJB3); experiment: Screen for inhibition of α-mannosidase from jack bean; type: biochemical; conditions: for IC50: read-out: Concentration Required for 50% Inhibitions, α-Mannosidase (jack bean)
T2 sequence (C0HJB3 1-981): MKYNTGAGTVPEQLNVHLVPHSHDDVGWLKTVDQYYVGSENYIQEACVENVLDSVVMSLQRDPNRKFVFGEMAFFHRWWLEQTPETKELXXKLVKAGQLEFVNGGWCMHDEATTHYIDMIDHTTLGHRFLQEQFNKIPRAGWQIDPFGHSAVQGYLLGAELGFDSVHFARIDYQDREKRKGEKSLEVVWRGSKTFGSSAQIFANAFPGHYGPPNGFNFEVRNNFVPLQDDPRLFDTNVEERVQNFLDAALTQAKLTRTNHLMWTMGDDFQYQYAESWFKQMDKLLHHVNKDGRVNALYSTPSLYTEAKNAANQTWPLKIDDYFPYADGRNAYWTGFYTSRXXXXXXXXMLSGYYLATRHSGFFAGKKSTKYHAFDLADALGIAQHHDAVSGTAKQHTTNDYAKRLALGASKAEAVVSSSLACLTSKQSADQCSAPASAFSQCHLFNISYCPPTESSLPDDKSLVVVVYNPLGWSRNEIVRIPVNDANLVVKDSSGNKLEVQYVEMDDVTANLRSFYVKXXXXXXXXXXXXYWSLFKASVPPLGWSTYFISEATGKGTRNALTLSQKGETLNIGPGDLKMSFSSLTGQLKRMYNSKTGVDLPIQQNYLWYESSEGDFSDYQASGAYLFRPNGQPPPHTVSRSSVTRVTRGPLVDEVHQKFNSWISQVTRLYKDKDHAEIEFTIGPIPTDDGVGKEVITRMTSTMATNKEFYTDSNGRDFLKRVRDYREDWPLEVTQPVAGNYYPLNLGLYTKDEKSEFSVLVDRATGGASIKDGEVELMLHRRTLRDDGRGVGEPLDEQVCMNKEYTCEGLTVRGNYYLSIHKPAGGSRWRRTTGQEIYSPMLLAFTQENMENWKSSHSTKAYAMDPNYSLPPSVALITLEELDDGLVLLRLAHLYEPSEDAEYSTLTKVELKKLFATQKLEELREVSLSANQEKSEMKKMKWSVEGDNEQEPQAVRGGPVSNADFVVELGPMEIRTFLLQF

lysosomal mannosidase = target: T3, lysosomal mannosidase (Homo sapiens, UniProt O00754); experiment: Selectivity for inhibition of α-mannosidase II vs. lysosomal mannosidase; type: biochemical; conditions: for ratio M/L (smaller is better): ratio of activities of α-Mannosidase II/lysosomal mannosidase
T3 sequence (O00754 50-1011): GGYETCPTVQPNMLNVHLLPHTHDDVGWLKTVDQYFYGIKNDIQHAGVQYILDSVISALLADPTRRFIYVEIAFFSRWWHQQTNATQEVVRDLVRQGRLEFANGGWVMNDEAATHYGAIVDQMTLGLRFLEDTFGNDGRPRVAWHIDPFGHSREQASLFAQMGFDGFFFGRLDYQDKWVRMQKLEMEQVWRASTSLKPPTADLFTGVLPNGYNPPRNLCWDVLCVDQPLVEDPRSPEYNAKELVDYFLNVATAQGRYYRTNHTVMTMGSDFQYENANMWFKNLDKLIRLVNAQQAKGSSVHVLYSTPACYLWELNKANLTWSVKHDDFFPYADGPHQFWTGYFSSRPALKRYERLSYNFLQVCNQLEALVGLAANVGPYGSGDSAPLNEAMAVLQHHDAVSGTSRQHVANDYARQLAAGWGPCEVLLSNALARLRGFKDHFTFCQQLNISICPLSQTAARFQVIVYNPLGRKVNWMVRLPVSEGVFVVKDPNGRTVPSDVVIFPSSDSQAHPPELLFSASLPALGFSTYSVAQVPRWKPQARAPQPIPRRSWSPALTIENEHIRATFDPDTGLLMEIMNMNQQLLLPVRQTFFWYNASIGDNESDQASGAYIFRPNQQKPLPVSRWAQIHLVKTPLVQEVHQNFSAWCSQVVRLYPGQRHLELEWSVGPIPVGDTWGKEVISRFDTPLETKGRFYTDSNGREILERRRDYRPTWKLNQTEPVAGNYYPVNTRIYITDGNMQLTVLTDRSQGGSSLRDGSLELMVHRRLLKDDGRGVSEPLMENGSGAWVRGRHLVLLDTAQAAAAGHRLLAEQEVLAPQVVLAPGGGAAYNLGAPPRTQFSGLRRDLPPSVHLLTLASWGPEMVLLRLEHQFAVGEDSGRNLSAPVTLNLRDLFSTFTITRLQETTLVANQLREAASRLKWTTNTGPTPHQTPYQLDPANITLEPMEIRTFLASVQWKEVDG

Row | SMILES | α-mannosidase (jack bean) inhibitory activity (in words) [3] | IC50 [3] [µM] | selectivity for inhibition of α-mannosidase II over lysosomal mannosidase (in words) (lysosomal mannosidase) | ratio M/L (smaller is better) (lysosomal mannosidase) | also measured
1 | O[C@H]1[C@H]2[C@H](O)CCCN2C[C@H]1O [Compound 1, swainsonine] | – | – | – | – | inhibition of α-mannosidase II (in words) (Golgi α-mannosidase II): potent inhibitor; toxicity observed in patients ([1]; repeated at 28 day intervals): Moderate toxicity; Serum half-life ([1]; patients with advanced malignancies): 12 h; preclinical toxicity [2]: low preclinical toxicity
2 | CC[C@H]1C[C@@H](O)[C@@H]2[C@H](O)[C@H](O)CN2C1 [Compound 24, (1S,2R,6S,8R,8aR)-6-Ethyl-1,2,8-trihydroxyindolizidine] | highest degree of inhibitory activity | 30 | increased selectivity | 0.2 | –
3 | O[C@H]1[C@H]2[C@H](O)C[C@H](CCOCc3ccccc3)CN2C[C@H]1O [Compound 25, (1S,2R,6S,8R,8aR)-6-[2-(Benzyloxy)ethyl]-1,2,8-trihydroxyindolizidine] | slight decrease in inhibitory activity | 70 | increased selectivity | 0.33 | –
4 | CC[C@@H]1C[C@@H](O)[C@@H]2[C@H](O)[C@H](O)CN2C1 [Compound 26, (1S,2R,6R,8R,8aR)-6-Ethyl-1,2,8-trihydroxyindolizidine] | highest degree of inhibitory activity; also recorded: significant decrease in activity | 230 | increased selectivity | 0.47 | –
5 | O[C@H]1[C@H]2[C@H](O)C[C@@H](CCOCc3ccccc3)CN2C[C@H]1O [Compound 27, (1S,2R,6R,8R,8aR)-6-[2-(Benzyloxy)ethyl]-1,2,8-trihydroxyindolizidine] | significant decrease in activity | 275 | – | – | –
6 | CCCC[C@@H]1CCN2C[C@@H](O)[C@@H](O)[C@H]2[C@@H]1O [Compound 52, (1S,2R,7R,8R,8aR)-7-Butyl-1,2,8-trihydroxyindolizidine] | – | > 1000 | increased selectivity | 0.02 | melting point: 156 °C; selectivity for inhibition of α-mannosidase II over lysosomal mannosidase (lysosomal mannosidase): 50 fold
7 | O[C@@H]1[C@H](CCOCc2ccccc2)CCN2C[C@@H](O)[C@@H](O)[C@@H]12 [Compound 53, (1S,2R,7S,8R,8aR)-7-[2-(Benzyloxy)ethyl]-1,2,8-trihydroxyindolizidine] | weak inhibitor | 890 | – | – | –
8 | CCCC[C@@H]1CCN2CC3OC(C)(C)O[C@H]3[C@@H]2[C@H]1O (stereo partly drawn) [Compound 54, (1S,2R,7R,8S,8aS)-7-Butyl-8-hydroxy-1,2-O-isopropylidenedioxyindolizidine] | – | > 1000 | – | – | –
9 | CC1(C)OC2CN3CC[C@@H](CCOCc4ccccc4)[C@H](O)[C@H]3[C@@H]2O1 (stereo partly drawn) [Compound 55, (1S,2R,7R,8S,8aS)-7-[2-(Benzyloxy)ethyl]-8-hydroyx-1,2-O-isopropylidenedioxyindolizidine] | – | > 1000 | – | – | –
10 | CCCC[C@@H]1CCN2C[C@@H](O)[C@@H](O)[C@@H]2[C@H]1O [Compound 56, (1S,2R,7R,8S,8aS)-7-Butyl-1,2,8-trihydroxyindolizidine] | – | > 1000 | – | – | –
11 | O[C@H]1[C@H](CCOCc2ccccc2)CCN2C[C@@H](O)[C@@H](O)[C@H]12 [Compound 57, (1S,2R,7S,8S,8aS)-7-[2-(Benzyloxy)ethyl]-1,2,8-trihydroxyindolizidine] | – | > 1000 | – | – | –
12 | CCCC[C@H]1CCN2C[C@@H](O)[C@@H](O)[C@@H]2[C@H]1O [Compound 77, (1S,2R,7S,8S,8aS)-7-Butyl-1,2,8-trihydroxyindolizidine] | – | > 1000 | – | – | –
13 | O[C@H]1[C@@H](CCOCc2ccccc2)CCN2C[C@@H](O)[C@@H](O)[C@H]12 [Compound 78, (1S,2R,7R,8S,8aS)-7-[2-(Benzyloxy)ethyl]-1,2,8-trihydroxyindolizidine] | – | > 1000 | – | – | –
